Assay: Human HepG2 cell viability assay in 384 well format
Assay type: toxicity, cell-based
Design: dose 125 nL, time 70.5 hour; cytotoxicity at 70.5 h: concentration not given beside the values
Conditions: HepG2 cells, read-out: Inhibition

| SMILES | cytotoxicity at 70.5 h |
| --- | --- |
| CN(Cc1ccccc1O)CC1CCCN(CCc2ccc(Cl)cc2)C1 (stereo unspecified) | -2.45% |
| Cc1cc(=O)[nH]c(=O)n1Cc1ccccc1 | -7.18% |
| CNS(=O)(=O)CCN1CC(c2ccccc2)(c2ccccc2)CCC1=O | 5.38% |
| CC(CN1CCC(CCO)CC1)n1cnc2ccccc21 (stereo unspecified) | -11.4% |
| COc1ccc(-n2cccn2)c(CN2CCC(O)(CO)CC2)c1 | -11.1% |
| CCCc1nnc(NCCc2noc(C3CCCC3)n2)o1 | 9.03% |
| NC(=O)c1nc(CN2CCOC(C(F)(F)F)C2)no1 (stereo unspecified) | 11.5% |
| COc1ccc(-n2nc(C)c(C(C)=O)c2C)cc1CO | 0.889% |
| CC(NC(=O)CCCn1cnc2ccccc2c1=O)c1ncn[nH]1 (stereo unspecified) | -15.2% |
| CCn1ncc2c1NC(=O)CC2c1cnc(NCc2ccccc2)nc1 (stereo unspecified) | 14.7% |
| Cc1cc(CN(C)C(=O)c2cccc(CCC(C)(C)O)c2)no1 | -7.67% |
| CCNc1ncc(C(=O)N(C)CCc2nc3cc(Cl)ccc3[nH]2)cn1 | -16.7% |
| Cc1ccc(Oc2ncccc2CNC2CCSCC2)cn1 | -8.64% |
| CCC1CN(C(=O)c2ccccc2N2CCOCC2)CCN1C(C)C (stereo unspecified) | -1.59% |
| O=S1(=O)COCCN1Cc1ccc(Cl)c(Cl)c1 | -6.71% |
| O=C1NCCCc2[nH]c(Cc3ccc(F)cc3)nc21 | -6% |
| Cc1ccc(OCCN(C)Cc2nccn2C)c(C)c1 | -9.5% |
| OCc1csc(N2C[C@@H](CN3CCCCCC3)[C@@H](CO)C2)n1 | -7.86% |
| CC(=O)N[C@@H]1CN(Cc2ccco2)C[C@H]1c1ccc(C)o1 | -6.07% |
| Cc1nc[nH]c1CN1C[C@@H]2CC[C@H](C1)N(C(=O)CCn1cncn1)C2 | -15% |
| c1ccc(Cc2noc(-c3ccc(NCC4COCCO4)nc3)n2)cc1 (stereo unspecified) | -5.85% |
| CCN1CCCC1Cn1ccc2ccc(C(=O)OC)cc2c1=O (stereo unspecified) | -8.61% |
| CN(C)S(=O)(=O)N1C[C@@H]2CC[C@H](C1)N(Cc1ccc3c(c1)OCCO3)C2 | -3.43% |

| SMILES | cytotoxicity at 70.5 h |
| --- | --- |
| CCC[C@H]1CN(c2cncc(C(=O)N(C)C)n2)C[C@@H]1N(C)C | 19.4% |
| COc1cccc(C(=O)C2CCCN(c3nccc(N)n3)C2)c1 (stereo unspecified) | -3.78% |
| O=C1CCC2(CCN(Cc3ccoc3)CC2)N1OCc1ccccc1F | -7.61% |
| OCCCN1CCOC(c2ccc(F)cc2)C1 (stereo unspecified) | -6.31% |
| Cn1c(-c2ccc(F)cc2)cn2cc(C(=O)N3CCC(N)C3)nc2c1=O (stereo unspecified) | -9.46% |
| COc1ncc(CN2CCOC(Cc3cccc4ccccc34)C2)cn1 (stereo unspecified) | 20% |
| CC(=O)N1CCN(Cc2ccc(C(F)(F)F)cc2F)CC(O)C1 (stereo unspecified) | -10.5% |
| CCOc1ccc(-c2c(C#N)c(N)nc3c2COCC3)cn1 | -15% |
| COc1ccc(NC2(C(=O)N3CCn4cncc4C3)CCCC2)cc1 | -11.8% |
| O=C(c1cn[nH]c1)N1CCC2(CCCN(Cc3ccc(F)c(F)c3)C2)C1 (stereo unspecified) | -8.34% |
| COC(=O)CN1CCN(c2nc3c(s2)c(C)nn3C)C(C)C1=O (stereo unspecified) | 3.44% |
| CC(c1cccc(-c2ccc(C(=O)O)cc2Cl)c1)N(C)C (stereo unspecified) | -1.21% |
| O=C(O)CNc1cc(-c2nccnc2N2CCCC2)c2cc[nH]c2n1 | 0.303% |
| Cc1ccnn1CCN1CCCC2(CCC(=O)N(C3CCCC3)C2)C1 (stereo unspecified) | -21% |
| Cc1cccc(OC2CCN(c3nc(N)nc4[nH]cnc34)CC2)c1 | -1.39% |
| CCc1nccn1CC(=O)N1C[C@H]2CC[C@@H]1CN(S(=O)(=O)N(C)C)C2 | 1.78% |
| Cc1cccc(C(C(=O)NCCCc2ccncc2)N(C)C)c1 (stereo unspecified) | -4.41% |
| CCC(C)N(Cc1cccnc1)C(=O)c1ccc(OC)cc1O (stereo unspecified) | -9.19% |
| Cc1cccnc1N1CCC(c2nccn2Cc2cscn2)CC1 | -0.624% |
| Cc1nc2c(c(=O)n1C)CN(C(=O)C1CCCN(C(=O)N(C)C)C1)C2 (stereo unspecified) | -0.169% |
| COCC(C)N(Cc1ccccc1OC)C(=O)c1cc(C)[nH]c(=O)c1 (stereo unspecified) | -5.15% |
| OC[C@H]1CN(Cc2c(Cl)cncc2Cl)C[C@H]1CN1CCOCC1 | -10.9% |
| CN(C)C(=O)N1CCCn2nc(CNC(=O)CCc3cccs3)cc2C1 | 0.772% |

| SMILES | cytotoxicity at 70.5 h |
| --- | --- |
| CC(=O)C(C)CC(=O)N(Cc1cccc(C)c1)C(C)C (stereo unspecified) | -1.29% |
| Cc1nc(C)n(CCNC2CCN(c3ncnc4c(C)csc34)CC2)n1 | -5.4% |
| CN1CCCC2(CCN(c3cc(C(F)(F)F)nc(N(C)C)n3)C2)C1=O (stereo unspecified) | 10.3% |
| O=C1O[C@@H]2CN(Cc3cc4ccccc4o3)C[C@@H]2N1Cc1ccccn1 | -4.9% |
| Cc1cc(NC(=O)c2ccc(N3CCOCC3)c(C)c2)[nH]n1 | 8.26% |
| Cc1c(C(C)NCc2cnn(C)c2)cnn1-c1ccccc1 (stereo unspecified) | 2.44% |
| COc1ccccc1Oc1ncccc1CNC(=O)C(O)C(F)(F)F (stereo unspecified) | -5.77% |
| CCS(=O)(=O)N1CCC2(CCCN(Cc3ccc(F)c(F)c3)C2=O)C1 (stereo unspecified) | 1.7% |
| Cc1nc(C(C)C)ncc1C(=O)N1CCC(c2ccccc2C(=O)O)C1 (stereo unspecified) | -3.24% |
| Nc1cc(CC2COc3ccccc3C2)ccn1 (stereo unspecified) | 11.8% |
| CC(C)c1nccc(CN(C)Cc2cnn(-c3ccccc3)c2)n1 | 26.7% |
| CSc1nccc(N2CCC(=O)N(CC3CC3)C(C(C)C)C2)n1 (stereo unspecified) | 54.1% |
| Nc1nccc(N2CCC(c3cc(Cc4ccccc4)n[nH]3)CC2)n1 | 31.5% |
| COc1ccc(C2CC(=O)NCc3nc(N(C)C)sc32)c(O)c1 (stereo unspecified) | 2.48% |
| Cc1noc(C)c1CCCNC(=O)C1CCN(C(=O)C2CC2)CC1 | 24.8% |
| CCNc1ccnc(NC2CCN(S(C)(=O)=O)CC2)n1 | -14.6% |
| Cc1nccnc1N1C[C@H](NC(=O)CNS(C)(=O)=O)[C@@H](C2CC2)C1 | -3.36% |
| Cc1nnc(CN2CCOC(c3ccc(Cl)c(Cl)c3)C2)o1 (stereo unspecified) | -3.49% |
| CCC(Nc1ncnc2sc(C(=O)O)c(C)c12)c1ccnn1C (stereo unspecified) | -12.8% |
| Cc1ccc(-c2noc(C(O)CC(C)C)n2)nn1 (stereo unspecified) | -3.31% |
| Cc1ncsc1C(=O)NCc1cc2n(n1)CCN(C(=O)N(C)C)C2 | -11.4% |
| CC(C)Cc1ncc2c(n1)CN(c1nc(N(C)C)nc3c1CCCC3)C2 | -0.189% |
| CCC(CO)N(Cc1ccco1)C(=O)c1ccc(F)cc1Cl (stereo unspecified) | -2.27% |

| SMILES | cytotoxicity at 70.5 h |
| --- | --- |
| CCc1ncc2c(n1)CN(c1cc(NC3CC3)nc(N)n1)C2 | -8.23% |
| C[C@@H]1CN(S(=O)(=O)N2CCOCC2)C[C@@]1(O)C1CC1 | -2.98% |
| CCn1nc(C)c(NC(=O)CN2CCC(c3ccccc3Cl)C2)c1C (stereo unspecified) | 21.2% |
| COc1ccccc1OC1CCN(C(=O)C2CCCN(C)C2)CC1 (stereo unspecified) | -8.14% |
| CCC/C=C/c1ccc(CN2CCCC2)cn1 | 48.4% |
| COCCCN1CC2(CCC1=O)CCN(Cc1cc(C(C)C)no1)CC2 | 29.5% |
| Cc1nccn1CCC1CCCCN1C(=O)c1ccc2nonc2c1 (stereo unspecified) | -1.05% |
| Cc1ccc(N2CC[C@@H](NC(=O)c3cnccn3)[C@H](O)C2)nn1 | -7.78% |
| Cc1nccn1Cc1nnc(C2CCCN(c3ncccc3F)C2)n1C (stereo unspecified) | -17.5% |
| Cc1cccnc1CN1CCN(CC(=O)N(C)C)[C@@H]2CS(=O)(=O)C[C@@H]21 | -5.23% |
| Cc1ccc(NC(=O)[C@H]2C[C@H](C(=O)O)CN(CC(C)C)C2)cn1 | -11.2% |
| CCCn1nccc1C(=O)N1CCCC(C(=O)CCc2ccccc2)C1 (stereo unspecified) | -2.61% |
| CC(C)c1cc(C2CCCN2C(=O)c2cn3ccsc3n2)no1 (stereo unspecified) | -5.17% |
| CN(C)Cc1ccc(C2CCCCN2C(=O)c2ncccc2O)cc1 (stereo unspecified) | -3.45% |
| CC1=CC[C@@H]2CN(C(=O)c3ccc(-c4nc[nH]n4)cc3)C[C@@H]2C1 | 11% |
| CN1CCC(Cc2nc(-c3cnccn3)n(C3CCS(=O)(=O)C3)n2)CC1 (stereo unspecified) | 0.375% |
| Cc1cc(C)c(C(=O)N(CCO)Cc2ccccc2F)c(=O)[nH]1 | -8.86% |
| Cc1cc(NCCN2CCNC2=O)nc2cc3c(cc12)CCC3 | -4.19% |
| CCOc1ccccc1C(C(=O)O)N(C)Cc1cc(C)[nH]n1 (stereo unspecified) | -5.35% |
| O=C(O)C(c1ccc2[nH]ccc2c1)N1CCN(c2cnccn2)CC1 (stereo unspecified) | -3.87% |
| Cc1cc(N2CCCN(CCc3ccccc3)CC2)ccn1 | -5.44% |
| O=C1COc2cc(OC[C@@H]3CCCN4CCCC[C@H]34)ccc21 | 14.3% |
| N#Cc1cc2c(=O)n(CC(O)c3cccc(O)c3)ccc2[nH]c1=O (stereo unspecified) | -6.53% |

| SMILES | cytotoxicity at 70.5 h |
| --- | --- |
| Cc1nc2c(c(N(C)CC3Cc4ccccc4CN3C)n1)CCNCC2 (stereo unspecified) | 11.4% |
| Cn1cc(CN2CCCC(Cn3cc(CCCO)nn3)C2)cn1 (stereo unspecified) | -7.9% |
| CS(=O)(=O)NCCC1CCCN(Cc2ccccc2F)C1 (stereo unspecified) | -7.9% |
| CCN(CC)CCNCc1cc(O)c2cc(C)ccc2n1 | -11.3% |
| N#Cc1ccc(N2CCCC(CO)(CCOc3ccccc3)C2)nc1 (stereo unspecified) | -6.22% |
| CCn1cnc(NC(=O)NCC2CCS(=O)(=O)CC2)n1 | -19.4% |
| O=C(c1cccc(-c2ncc[nH]2)c1)N1CCC(N2CCCC(O)C2)CC1 (stereo unspecified) | 4.83% |
| O=C(O)c1ccc(N2CCC(Oc3ccc(Cl)cc3)CC2)nc1 | -12.3% |
| CS(=O)(=O)Cc1nc(CCc2ccccc2)nn1-c1ccccn1 | -10.4% |
| O=C(O)c1ccnc(-c2ccnc(NCCc3nc4c(s3)CCC4)n2)c1 | -6.73% |
| CCOc1ccccc1-n1c(C2CC2)n[nH]c1=O | -16.7% |
| Cc1cc2ncn(C[C@]3(O)CCCN4CCCC[C@@H]43)c2cc1C | -15% |
| Cc1ccc(OCC2CCCN(Cc3ccc(CO)o3)C2)cc1 (stereo unspecified) | -3.39% |
| C=C(C)COc1cccc(C(=O)N(C)Cc2cc(CC)no2)c1 | -3.37% |
| CC1=CCN(S(=O)(=O)c2cccc(C(=O)N3CCOCC3)c2)CC1 | -15.8% |
| O=C(NCCc1ccccc1)c1cccc(S(=O)(=O)NC2CCOC2)c1 (stereo unspecified) | 19.4% |
| Cc1ncnc(N2CCN(C(=O)C3CC4(CCNCC4)CN3)CC2)c1C (stereo unspecified) | 13.5% |
| CCS(=O)(=O)c1ncc(CN2CCSCC2)n1CCc1ccccc1 | -11.3% |
| CN(C)C(C(=O)N1CC(Oc2ccccc2F)C1)c1ccc(F)cc1 (stereo unspecified) | -0.723% |

Reference: ChEMBL document CHEMBL3507680, “University of Dundee, Gates Library screen for HepG2 cell viability”
